Data published in US10179785B2, “Imidazotriazinone or imidazopyrazinone derivatives, and use thereof” (ST PHARM CO., LTD., priority 2014, dated 2019).

Molecular target: T1, tankyrase 1 (Homo sapiens, UniProt O95271)
T1 construct: purchased Trevigen 4700-096-K
T1 sequence (O95271 1-1327): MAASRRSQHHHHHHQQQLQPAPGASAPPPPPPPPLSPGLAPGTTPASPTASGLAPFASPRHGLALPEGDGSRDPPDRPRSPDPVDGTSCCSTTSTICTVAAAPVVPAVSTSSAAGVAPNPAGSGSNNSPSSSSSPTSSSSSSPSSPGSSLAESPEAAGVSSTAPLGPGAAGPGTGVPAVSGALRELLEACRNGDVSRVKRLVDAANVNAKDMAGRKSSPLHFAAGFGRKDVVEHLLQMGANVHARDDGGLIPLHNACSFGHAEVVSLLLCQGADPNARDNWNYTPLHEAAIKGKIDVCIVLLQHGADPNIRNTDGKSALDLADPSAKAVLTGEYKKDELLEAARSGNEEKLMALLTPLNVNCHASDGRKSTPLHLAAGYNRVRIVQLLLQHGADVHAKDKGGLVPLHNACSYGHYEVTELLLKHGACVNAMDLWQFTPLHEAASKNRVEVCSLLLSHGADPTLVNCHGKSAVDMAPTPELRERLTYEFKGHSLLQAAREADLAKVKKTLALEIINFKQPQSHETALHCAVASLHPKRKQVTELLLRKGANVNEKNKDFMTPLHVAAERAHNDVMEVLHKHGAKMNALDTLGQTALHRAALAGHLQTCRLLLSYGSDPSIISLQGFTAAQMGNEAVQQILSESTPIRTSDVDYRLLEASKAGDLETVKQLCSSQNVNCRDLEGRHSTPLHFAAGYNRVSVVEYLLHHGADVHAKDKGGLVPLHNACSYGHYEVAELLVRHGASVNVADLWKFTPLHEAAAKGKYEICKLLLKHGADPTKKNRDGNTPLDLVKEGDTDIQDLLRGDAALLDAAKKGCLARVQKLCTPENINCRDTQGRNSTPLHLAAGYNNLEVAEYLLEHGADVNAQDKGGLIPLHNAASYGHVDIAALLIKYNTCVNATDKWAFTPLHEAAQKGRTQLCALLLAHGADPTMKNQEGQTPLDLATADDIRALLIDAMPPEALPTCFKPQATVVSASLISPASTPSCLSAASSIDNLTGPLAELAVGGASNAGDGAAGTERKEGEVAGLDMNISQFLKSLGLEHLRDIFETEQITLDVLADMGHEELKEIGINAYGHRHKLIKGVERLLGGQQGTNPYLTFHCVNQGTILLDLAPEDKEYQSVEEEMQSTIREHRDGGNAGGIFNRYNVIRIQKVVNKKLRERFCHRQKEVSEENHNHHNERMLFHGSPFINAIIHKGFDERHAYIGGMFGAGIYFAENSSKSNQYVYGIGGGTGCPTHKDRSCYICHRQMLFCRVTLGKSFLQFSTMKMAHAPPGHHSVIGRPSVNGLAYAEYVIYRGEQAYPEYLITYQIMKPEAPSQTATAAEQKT
Test: Analysis of activity of tankyrase 1 (Trevigen kit, ELISA absorbance at 450 nm)
Assay type: biochemical
Details: Trevigen kit Cat. No. 4700-096-K; reaction at rt for 30 min; read-out: TNKS1 (IC50)
Experimental: Activities of novel compounds synthesized according to Examples 1 to 48 against tankyrase 1 were analyzed using a Trevigen kit (Cat. No. 4700-096-K). Poly PAR histone protein-coated 96-well plate, anti-PAR monoclonal antibody and goat anti-mouse IgG-HRP were used for measurement of absorbance by ELISA method. Specifically, 20× I-PAR assay buffer was diluted to 1× by adding water, and 50 μL of the diluted buffer was added to each well of the 96-well plate followed by reacting at rt for 30 min. Then, the supernatant was completely removed from each well and 10 μL of 1× I-PAR assay buffer and 15 μL of assay substrate were added to each well along with 1 μL of a 50× solution of inhibitors to be tested, which were the compounds obtained in the Examples 1 to 48. 10 m Units/μL of tankyrase 1 enzyme was diluted 50-fold with 1× I-PAR assay buffer and 25 μL of the diluted enzyme was added to each well and reacted while stirring at rt for 30 min. One without any compound of the present invention was used as a positive control and another containing 1× I-PAR assay buffer with the same volume instead of tankyrase 1 enzyme was used as a negative control. Upon completion of the reaction, 200 μL of PBSX, which was prepared by adding 0.1% triton X-100 to PBS, was added and removed and this washing process was repeated twice. Washing was repeated twice more using PBS in the same manner. 5× antibody diluent was diluted with distilled water to 1× concentration, 50 μL of the diluted goat anti-mouse IgG-HRP to 1/2000 was added to each well and reacted while stirring at rt for 30 min. Washes were carried out twice using PBSX and PBS, respectively. After addition of 50 μL of TACS-sapphire to each well of the plate, the plate was blocked from light to react for 10 min to 15 min and the color of the reaction solution turned blue. To stop the reaction, 50 μL of 0.2N HCl was added to turn the solution yellow. Finally, the absorbance of the resulting solution was measured at 450 nm.

Structure (SMILES) | IC50 [nM]
Cc1ncc2c(=O)[nH]c(N3CCN(c4c(F)cc(OCCN5CCN(C)CC5=O)cc4F)CC3)nn12 [compound 33, 2-(4-(2,6-Difluoro-4-(2-(4-methyl-2-oxopiperazin-1-yl)ethoxy)phenyl)piperazin-1-yl)-7-methylimidazo[1,5-f][1,2,4]triazin-4(3H)-one] | 180
Cc1ncc2c(=O)[nH]c(N3CCN(c4c(F)cc(OCCN5CCC(N)CC5)cc4F)CC3)nn12 [compound 34, 2-(4-(4-(2-(4-Aminopiperidin-1-yl)ethoxy)-2,6-difluorophenyl)piperazin-1-yl)-7-methylimidazo[1,5-f][1,2,4]triazin-4(3H)-one] | 60.5
Cc1ncc2c(=O)[nH]c(N3CCN(c4c(F)cc(OCCN5CCC(O)C5)cc4F)CC3)nn12 (stereo not shown) [compound 35, 2-(4-(2,6-Difluoro-4-(2-(3-hydroxypyrrolidin-1-yl)ethoxy)phenyl)piperazin-1-yl)-7-methylimidazo[1,5-f][1,2,4]triazin-4(3H)-one] | 102
Cc1ncc2c(=O)[nH]c(N3CCN(c4c(F)cc(OCCN5CCC(O)CC5)cc4F)CC3)nn12 [compound 36, 2-(4-(2,6-Difluoro-4-(2-(4-hydroxypiperidin-1-yl)ethoxy)phenyl)piperazin-1-yl)-7-methylimidazo[1,5-f][1,2,4]triazin-4(3H)-one] | 65.2
